# Laboratory results: PMC12469971 (Gels, 2025)
# “And” between values parts separate entries of the source, which are not always exact repeats. Equal entries are not always repeated. Where two headings read alike, the source gives them in different places.
# How the values were obtained:
# [1] = Antioxidant activity, DPPH assay; format: biochemical; settings: not UV-irradiated; curcumin concentration; 40 min
# Method: The samples were vortexed for 20 to 30 s, and their absorbance was measured at 517 nm after 40 min using a UV spectrophotometer (BOECO S-22) (BOECO, Hamburg, Germany). Ethanol is used for calibration, and ascorbic acid serves as a standard for antioxidant activity.
# The percentage of DPPH inhibition for each sample type was determined, and the IC50 values were calculated based on the concentration (μg/mL) vs. inhibition plots. Ascorbic acid was used as a standard. All measurements were performed in triplicate at room temperature.
# C6 tumor cell line = test: Cell apoptosis by Annexin V-FITC/PI flow cytometry; format: cell-based, Rattus norvegicus; settings: C6, 7.5 µg/mL, 24 h
# From the text: (§1) The possible mechanism of action for the analyzed nanoparticles was established by determining the process of cellular apoptosis using flow cytometry, a method that enabled the assessment of the percentage of live, dead, pre-apoptotic, and apoptotic cells (Table S2 and Figure 8).
# (§2) Apoptosis, also known as programmed cell death, is a natural process for eliminating cells. It involves the formation of membrane vesicles, chromatin condensation, and DNA fragmentation. Annexin V, which is a calcium-dependent protein, binds with high affinity to phosphatidylserine (PS), which moves from the inner to the outer membrane during apoptosis. When Annexin V is fluorescently labeled, this PS exposure can be detected using flow cytometry. The presence of PS signals macrophages to clear the cell through phagocytosis. […] In late apoptotic and necrotic cells, both the plasma and nuclear membrane integrity is compromised, enabling propidium iodide to penetrate the membrane, bind to nucleic acids, and produce red fluorescence. Cells were cultured in 24-well plates at a density of 50,000 cells per well to create a monolayer. After 24 h of incubation, test compounds (free drugs or nanoparticle formulations) were applied at a concentration of 7.5 µg/mL and incubated for an additional 24 h. Flow cytometry was used to process and analyze the cells according to the manufacturer’s instructions for the assay kit. For interpretation, cells that were negative for both propidium iodide (PI) and Annexin V were classified as viable; cells that were Annexin V-positive and PI-negative were considered apoptotic; and cells that were positive for both markers were identified as necrotic.
# V79-4 normal cell line = test: Cell apoptosis by Annexin V-FITC/PI flow cytometry; format: cell-based, Cricetulus griseus; settings: V79-4, 7.5 µg/mL, 24 h
# From the text: as §1, §2
# [2] = PAMPA-BBB permeability assay (kit PMBBB-096); format: in vitro ADME; settings: for Papp at 18 h, 500 μM: PAMPA, 37 °C
# Method: The in vitro parallel artificial permeability assay (PAMPA, Kit PMBBB-096 from BioAssay Systems (Hayward, CA, USA)) was employed to evaluate whether nanoparticles can cross the BBB. […] As a negative standard, we used the low-permeability (LP) and high-permeability (HP) standards from the PAMPA-BBB kit from Bioassay.
# Specifically, the PMBBB-096 (BioAssay Systems Hayward, CA, USA) kit supports in vitro assessment of BBB permeability. […] Three hundred microliters (300 μL) of 0.01 M PBS with 5% DMSO was added to the acceptor plate (96-well PTFE acceptor plates) (BioAssay Systems Hayward, CA, USA). The donor plate (96-well polycarbonate filter-based donor plates, pore size 0.45 μm) was coated with 5 μL of lyophilized brain lipid extract solution, made by dissolving the brain extract in 400 μL of dodecane. […] In parallel, 200 μM equilibrium standards were prepared in separate Eppendorf tubes for each test and control sample. In Eppendorf tubes, 80 μL of test solutions or the control standard at a concentration of 500 μM were mixed with 120 μL of PBS solution containing 5% DMSO. The blank was prepared using the PBS solution with 5% DMSO. The next day, equilibrium standards and the blank solution were utilized, and the acceptor compartment’s solution was analyzed. […] Based on the absorbance value determined for each respective test sample and the permeability control standard, the permeability rate (Pe) was calculated using the following Equation (4):(4) Pe=C×−ln1−ODA/ODE,cm/s where ODA represents the absorbance of the acceptor plate solution minus the absorbance of the blank, and ODE indicates the absorbance of the equilibrium standard minus the absorbance of the blank.
# Cytotoxicity, MTT assay = settings: Chinese hamster, V79-4 lung fibroblasts (ATCC CCL-93), 48 h; for viability at 48 h, 1.875 μg/mL: Cell viability (%) V79-4, 1.875 μg/mL (nanoparticles or free drug); for viability at 48 h, 3.75 μg/mL: Cell viability (%) V79-4, 3.75 μg/mL; for viability at 48 h, 7.5 μg/mL: Cell viability (%) V79-4, 7.5 μg/mL; for viability at 48 h, 15 μg/mL: Cell viability (%) V79-4, 15 μg/mL
# Method: (§3) This IC50 value was derived from a graph plotting the percentage of dead cells against the drug concentration in the samples. […] A lower IC50 value indicates the higher cytotoxicity of the samples.
# (§4) In both cases, the growth media were supplemented with 10% fetal bovine serum (SFB, Euroclone S.p.A., Milan, Italy) and 1% antibiotic solution, containing penicillin at […] and streptomycin at 100 IU/mL (Capricorn Scientific GmbH, Ebsdorfergrund, Germany), maintained at a temperature of 37 °C in a humidified environment with 5% CO2 [130]. Products tested: Albumin nanoparticles obtained through self-assembly and crosslinking with OG were evaluated.
# (§5) This method relies on the conversion of MTT, a water-soluble yellow compound, into dark blue, water-insoluble formazan by the mitochondrial dehydrogenases of living cells. […] After treatment, the medium was removed, the cells were washed with phosphate-buffered saline (PBS), and then incubated with 100 μL of fresh medium and 10 μL of MTT (5 mg/mL) for 3 h at 37 °C. The resulting formazan crystals were solubilized with 50 μL of DMSO, and absorbance was measured at 570 nm using the EZ Read 400 reader (Biochrom, Cambridge, UK). The intensity of the resulting color directly correlates with the number of viable cells, and viability was calculated using Equation (6):Cell viability (%) = Esample/Econtrol × 100, where E = extinction(6)
# C6 tumor cells = test: Cytotoxicity, MTT assay; settings: for viability at 1.875 µg/mL / viability at 3.75 µg/mL / viability at 7.5 µg/mL / viability at 15 µg/mL / IC50: Rattus norvegicus; for viability at 1.875 µg/mL / viability at 3.75 µg/mL / viability at 7.5 µg/mL / viability at 15 µg/mL / Percentage of dead cells per C6 cell line (cytotoxic effect): 48 h; for viability at 1.875 µg/mL: read-out: Cell viability (%) C6, 1.875 μg/mL (nanoparticles or free drug), 48 h; for viability at 3.75 µg/mL: read-out: Cell viability (%) C6, 3.75 μg/mL, 48 h; for viability at 7.5 µg/mL: read-out: Cell viability (%) C6, 7.5 μg/mL, 48 h; for viability at 15 µg/mL: read-out: Cell viability (%) C6, 15 μg/mL, 48 h; for IC50: C6, 48 h
# Method: as §3, §4, §5
# normal V79-4 cells = test: Cytotoxicity, MTT assay; settings: for Percentage of dead cells per V79-4 cell line (cytotoxic effect): 48 h; for IC50: Cricetulus griseus, V79-4, 48 h
# Method: as §3, §4, §5
# [3] = pH stability of free and encapsulated curcumin; format: physicochemical; parameters: degradation rate constant k: unit: h⁻¹; settings: dark; for half-life at 4 μg/mL: read-out: degradation half-life t1/2 (converted)
# Method: The samples were maintained at 37 °C in the dark, in closed containers, for 8 h. […] The particles were maintained at 37 °C in an oven (AG-System, F.lli Galli G. & P., Milano, Italia) protected from light and air exposure. […] The amount of curcumin found in the samples was then determined using a Nanodrop spectrophotometer. […] The half-life (t1/2) for first-order reactions depends solely on the degradation rate constant, k, and is independent of the substance’s initial concentration. All measurements were conducted in triplicate, and the results are reported as average values ± standard deviation (STDev).
# [4] = Light stability of free and encapsulated curcumin (natural light and air); format: physicochemical
# Method: The analyzed HSA nanoparticles were weighed and then exposed to air and natural light for 30 days in Petri dishes. […] All determinations were performed in triplicate, and the results are presented as mean values ± standard deviation (STDev).
# [5] = parameters: method as in PMID 32494134, PMID 35684445, PMID 25751368; settings: rapidly hydrolyzed in physiological conditions; cited from earlier work
# [6] = read-out: IC50 μg/mL for TMZ/CURC on the C6 Cell Line
# [7] = read-out: IC50 μg/mL for TMZ/CURC on the V79-4 Cell Line
compound,measurement,setting,value
"O=C1O[C@H]([C@@H](O)CO)C(O)=C1O [Ascorbic acid, ascorbic acid]",IC50 (DPPH),[1],4.3 µg/mL
"COc1cc(/C=C/C(=O)CC(=O)/C=C/c2ccc(O)c(OC)c2)ccc1O [Curcumin, curcumin]",Apoptotic cells (%),C6 tumor cell line,35.64%
same,Dead cells (%),C6 tumor cell line,14.33%
same,Living cells (%),C6 tumor cell line,37.92%
same,Preapoptotic cells (%),C6 tumor cell line,12.11%
same,Apoptotic cells (%),V79-4 normal cell line,27.09%
same,Dead cells (%),V79-4 normal cell line,17.93%
same,Living cells (%),V79-4 normal cell line,43.47%
same,"Papp at 18 h, 500 μM","[2]; pH 7.4, Permeability rate, Pe (Curcumin), PAMPA-BBB, read at 425 nm",0.21 ×10⁻⁶ cm/s
same,"viability at 48 h, 1.875 μg/mL","Cytotoxicity, MTT assay",75.8%
same,"viability at 48 h, 3.75 μg/mL","Cytotoxicity, MTT assay",60.9%
same,"viability at 48 h, 7.5 μg/mL","Cytotoxicity, MTT assay",52.7%
same,"viability at 48 h, 15 μg/mL","Cytotoxicity, MTT assay",41.6%
same,viability at 1.875 µg/mL,C6 tumor cells,62.3%
same,viability at 3.75 µg/mL,C6 tumor cells,55.8%
same,viability at 7.5 µg/mL,C6 tumor cells,39.2%
same,viability at 15 µg/mL,C6 tumor cells,37.4%
same,IC50,C6 tumor cells; [6],6.31 µg/mL
same,IC50,C6 tumor cells; read-out: IC50 for μg/mL for CURC on the C6 Cell Line,6.31 µg/mL
same,Percentage of dead cells per C6 cell line (cytotoxic effect),"C6 tumor cells; rat, 1.875 μg/mL",37.66%
same,Percentage of dead cells per C6 cell line (cytotoxic effect),"C6 tumor cells; rat, 3.75 μg/mL",44.22%
same,Percentage of dead cells per C6 cell line (cytotoxic effect),"C6 tumor cells; rat, 7.5 μg/mL",60.84%
same,Percentage of dead cells per C6 cell line (cytotoxic effect),"C6 tumor cells; rat, 15 μg/mL",62.63%
same,Percentage of dead cells per V79-4 cell line (cytotoxic effect),normal V79-4 cells; 1.875 μg/mL,24.21%
same,Percentage of dead cells per V79-4 cell line (cytotoxic effect),normal V79-4 cells; 3.75 μg/mL,39.14%
same,Percentage of dead cells per V79-4 cell line (cytotoxic effect),normal V79-4 cells; 7.5 μg/mL,47.33%
same,Percentage of dead cells per V79-4 cell line (cytotoxic effect),normal V79-4 cells; 15 μg/mL,58.41%
same,IC50,normal V79-4 cells; read-out: IC 50 μg/mL for CURC on the V79-4 Cell Line,10.4 µg/mL
same,IC50,normal V79-4 cells; [7],10.4 µg/mL
same,half-life at 4 μg/mL,"[3]; buffer solution (pH 3), pH 3, 37 °C",7.7 h
same,half-life at 4 μg/mL,"[3]; buffer solution (pH 9), pH 9, 37 °C",2.3 h
same,half-life at 4 μg/mL,"[3]; buffer solution, pH 6.8, 37 °C",6.5 h
same,half-life at 4 μg/mL,"[3]; buffer solution, pH 7.4, 37 °C",5.8 h
same,Undegraded Curcumin (%) 1 h,"[3]; pH 3, 37 °C",76%
same,Undegraded Curcumin (%) 5 h,"[3]; pH 3, 37 °C",55.7%
same,Undegraded Curcumin (%) 8 h,"[3]; pH 3, 37 °C",47.6%
same,degradation rate constant k,"[3]; pH 3, 37 °C",0.091
same,Undegraded Curcumin (%) 1 h,"[3]; pH 6.8, 37 °C",76.4%
same,Undegraded Curcumin (%) 5 h,"[3]; pH 6.8, 37 °C",56.8%
same,Undegraded Curcumin (%) 8 h,"[3]; pH 6.8, 37 °C",43.7%
same,degradation rate constant k,"[3]; pH 6.8, 37 °C",0.107
same,Undegraded Curcumin (%) 1 h,"[3]; pH 7.4, 37 °C",77%
same,Undegraded Curcumin (%) 5 h,"[3]; pH 7.4, 37 °C",52.7%
same,Undegraded Curcumin (%) 8 h,"[3]; pH 7.4, 37 °C",41.1%
same,degradation rate constant k,"[3]; pH 7.4, 37 °C",0.119
same,Undegraded Curcumin (%) 1 h,"[3]; pH 9, 37 °C",61%
same,Undegraded Curcumin (%) 5 h,"[3]; pH 9, 37 °C",21%
same,Undegraded Curcumin (%) 8 h,"[3]; pH 9, 37 °C",8.6%
same,degradation rate constant k,"[3]; pH 9, 37 °C",0.301
same,"Percentage of Degradation of curcumin, Day 3",[4],6.8%
same,"Percentage of Degradation of curcumin, Day 10",[4],13.5%
same,"Percentage of Degradation of curcumin, Day 18",[4],16.9%
same,"Percentage of Degradation of curcumin, Day 26",[4],26%
same,"Percentage of Degradation of curcumin, Day 30",[4],32.3%
"Cn1nnc2c(C(N)=O)ncn2c1=O [TMZ, temozolomide]",Apoptotic cells (%),C6 tumor cell line,33.59%
same,Dead cells (%),C6 tumor cell line,16.45%
same,Living cells (%),C6 tumor cell line,40.08%
same,Preapoptotic cells (%),C6 tumor cell line,9.88%
same,Apoptotic cells (%),V79-4 normal cell line,24.86%
same,Dead cells (%),V79-4 normal cell line,15.17%
same,Living cells (%),V79-4 normal cell line,49.36%
same,Preapoptotic cells (%),V79-4 normal cell line,10.61%
same,"Papp at 18 h, 500 μM","[2]; pH 7.4, PAMPA-BBB, read at 327 nm, read-out: Permeability rate, Pe (TMZ)",0.76 ×10⁻⁶ cm/s
same,BBB permeability category,"[2]; PAMPA-BBB, in words",low permeability
same,"viability at 48 h, 1.875 μg/mL","Cytotoxicity, MTT assay",75.8%
same,"viability at 48 h, 3.75 μg/mL","Cytotoxicity, MTT assay",67%
same,"viability at 48 h, 7.5 μg/mL","Cytotoxicity, MTT assay",60.4%
same,"viability at 48 h, 15 μg/mL","Cytotoxicity, MTT assay",54.5%
same,Percentage of dead cells per C6 cell line (cytotoxic effect),C6 tumor cells; 1.875 μg/mL,37.7% and 34.88%
same,Percentage of dead cells per C6 cell line (cytotoxic effect),C6 tumor cells; 3.75 μg/mL,42.5%
same,Percentage of dead cells per C6 cell line (cytotoxic effect),C6 tumor cells; 7.5 μg/mL,47.05%
same,Percentage of dead cells per C6 cell line (cytotoxic effect),C6 tumor cells; 15 μg/mL,60.95% and 59.18%
same,viability at 1.875 µg/mL,C6 tumor cells,62.3%
same,viability at 3.75 µg/mL,C6 tumor cells,57.5%
same,viability at 7.5 µg/mL,C6 tumor cells,53%
same,viability at 15 µg/mL,C6 tumor cells,39%
same,IC50,C6 tumor cells; read-out: IC50 μg/mL for TMZ on the C6 Cell Line,8.75 µg/mL
same,IC50,C6 tumor cells; [6],8.75 µg/mL
same,Percentage of dead cells per V79-4 cell line (cytotoxic effect),normal V79-4 cells; 1.875 μg/mL,24.16%
same,Percentage of dead cells per V79-4 cell line (cytotoxic effect),normal V79-4 cells; 3.75 μg/mL,33.05%
same,Percentage of dead cells per V79-4 cell line (cytotoxic effect),normal V79-4 cells; 7.5 μg/mL,39.64%
same,Percentage of dead cells per V79-4 cell line (cytotoxic effect),normal V79-4 cells; 15 μg/mL,45.53%
same,IC50,normal V79-4 cells; read-out: IC50 μg/mL for TMZ on the V79-4 Cell Line,16.8 µg/mL
same,IC50,normal V79-4 cells; [7],16.8 µg/mL
same,half-life,[5],1.8 h
